Seven molecules from patent publication US9663463B2, “3-azabicyclo[3.1.0]hexane derivative and use thereof for medical purpose” (priority 2013, dated 2017) can be followed below.

Counter-ions that a name gives are not always drawn.

For data set [1], the system named is pruritus mice model to which morphine had been intracisternally administered. As to the kind of experiment: Anti-pruritic effect in pruritus mice model to which morphine had been intracisternally administered. The following applies: Mus musculus; oral administration, male ICR mice, inhibition of morphine-induced scratching behavior; read-out: ED50. It is filed as in vivo.

The next data set in a line: in vitro. It is filed as in vitro ADME, mice. The following applies: Crl:CD-1 (ICR), mouse, pH 7.4; murine serum, equilibrium dialysis, 37° C., 5 to 6 hours; read-out: Protein binding rate (converted). (In general: In equilibrium dialysis only unbound substance equilibrates across the membrane.)
The nature of data set [2]: Plasma concentration of test substance at ED50 value (mice, LC/MS/MS). It is filed as in vivo. The following applies: at the ED50 value, at time of morphine administration, oral, linear regression from two doses.
A further data set deals with hERG (Homo sapiens (Human), UniProt Q12809). The data set is described as follows: Safety margin against hERG inhibitory activity. The settings on record: hERG IC50×1000/{concentration in plasma at ED50×(1−protein binding rate/100)}. Here is the method: In order to compare the risks of extension of QT interval prolongation in the electrocardiogram among the test substances, the safety margins against the hERG inhibitory effect were calculated. […] Therefore, the following formula was used for calculating the safety margin, and the obtained values were described in Table 7. Safety margin against hERG inhibitory effect=IC50×1000/{concentration in plasma×(1−protein binding rate/100)}
IC50: the IC50 value in a hERG inhibition assay (μM)
Plasma concentration: the plasma concentration of test substance (nM) at the ED50 value in the test for evaluating the anti-pruritic effect in the morphine model
Protein binding rate: the protein binding rate (%) in the protein binding assay in murine serum

The next data set addresses hERG current (Homo sapiens (Human), UniProt Q12809). As to the kind of experiment: cell-based. The text has this: A: the suppression rate (%) of the test substance in each cell
B: the average suppression rate (%) of the vehicle control group

Chain of hERG current (Q12809 whole entry): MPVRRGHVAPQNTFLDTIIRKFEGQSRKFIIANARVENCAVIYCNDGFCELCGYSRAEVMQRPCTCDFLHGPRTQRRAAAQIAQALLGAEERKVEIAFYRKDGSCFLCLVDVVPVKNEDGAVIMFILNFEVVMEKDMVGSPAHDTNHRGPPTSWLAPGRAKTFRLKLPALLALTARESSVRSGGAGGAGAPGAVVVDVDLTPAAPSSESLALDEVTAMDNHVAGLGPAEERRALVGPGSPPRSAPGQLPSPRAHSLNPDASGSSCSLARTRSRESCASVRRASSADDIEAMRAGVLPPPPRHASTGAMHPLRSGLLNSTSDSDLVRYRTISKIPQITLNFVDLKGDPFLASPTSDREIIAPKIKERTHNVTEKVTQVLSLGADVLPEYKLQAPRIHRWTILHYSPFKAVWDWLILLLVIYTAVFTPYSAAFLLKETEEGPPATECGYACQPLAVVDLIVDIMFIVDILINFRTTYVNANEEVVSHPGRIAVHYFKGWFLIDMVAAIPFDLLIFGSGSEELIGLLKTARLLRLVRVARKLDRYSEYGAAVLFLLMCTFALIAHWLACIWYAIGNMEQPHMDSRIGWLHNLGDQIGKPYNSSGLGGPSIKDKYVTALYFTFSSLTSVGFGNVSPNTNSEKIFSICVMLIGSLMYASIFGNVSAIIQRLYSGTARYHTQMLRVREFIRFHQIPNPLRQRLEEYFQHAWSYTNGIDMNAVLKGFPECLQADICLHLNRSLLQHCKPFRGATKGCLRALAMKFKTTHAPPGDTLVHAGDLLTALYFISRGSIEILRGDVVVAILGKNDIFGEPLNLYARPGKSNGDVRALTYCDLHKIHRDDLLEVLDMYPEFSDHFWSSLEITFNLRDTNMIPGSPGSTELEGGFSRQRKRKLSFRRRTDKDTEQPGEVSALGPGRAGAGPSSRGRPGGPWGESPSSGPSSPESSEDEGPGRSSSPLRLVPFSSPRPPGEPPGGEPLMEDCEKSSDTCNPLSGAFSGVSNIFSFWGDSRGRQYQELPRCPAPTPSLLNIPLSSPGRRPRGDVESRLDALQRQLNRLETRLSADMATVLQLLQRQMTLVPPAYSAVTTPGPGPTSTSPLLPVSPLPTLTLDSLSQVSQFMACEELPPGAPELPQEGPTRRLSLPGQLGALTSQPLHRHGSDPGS

A word on the ED50: it is the dose at which the effect has come halfway, by size or by number of responders. What is called IC50 is the point on the concentration scale where inhibition reaches its midpoint. For the molecule `CC[C@]1(c2cccc(NS(=O)(=O)C3CC3)c2)[C@@H]2CN(CCCN3CCC(F)(F)C3)C[C@@H]21` [Example 8-(b), N-(3-{(1R,5S,6r)-3-[3-(3,3-difluoropyrrolidin-1-yl)propyl]-6-ethyl-3-azabicyclo[3.1.0]hexan-6-yl}phenyl)cyclopropanesulfonamide hydrochloride], the ED50 in data set [1] came to 2 mg/kg. The fraction unbound in “in vitro” was 0.316. In addition, the “Plasma concentration of test substance” value in data set [2] is 10.9 nM. In addition, on hERG, the Safety margin amounted to 99. Further, the IC50 against hERG current was 340 nM.
Take `CC[C@]1(c2cc(NS(=O)(=O)C3CC3)ccc2F)[C@@H]2CN(CC3(O)Cc4ccccc4C3)C[C@@H]21` [Example 2-(b), N-(3-{(1R,5S,6r)-6-ethyl-3-[(2-hydroxy-2,3-dihydro-1H-inden-2-yl)methyl]-3-azabicyclo[3.1.0]hexan-6-yl}-4-fluorophenyl)cyclopropanesulfonamide hydrochloride]: in data set [1], the 50% effective dose (ED50) worked out at 0.83 mg/kg. For the same molecule, in the data set “in vitro”, the fraction unbound was 0.006. Besides, the “Plasma concentration of test substance” value in data set [2] came to 21.4 nM. The molecule further gave a Safety margin on hERG of 1250. For the same molecule, on hERG current, the IC50 turned out to be 160 nM.
Take `CC[C@]1(c2cccc(NS(=O)(=O)C3CC3)c2)[C@@H]2CN(CCCC3CCC(F)(F)CC3)C[C@@H]21` [Example 4-(b), N-(3-{(1R,5S,6r)-3-[3-(4,4-difluorocyclohexyl)propyl]-6-ethyl-3-azabicyclo[3.1.0]hexan-6-yl}phenyl)cyclopropanesulfonamide hydrochloride]: the ED50 in data set [1] came to 0.5 mg/kg. The fraction unbound in “in vitro” is 0.019. For the same molecule, in data set [2], the “Plasma concentration of test substance” value was determined as 31.6 nM. The Safety margin at hERG is 157. This molecule showed an IC50 at hERG current of 94 nM.
For `CC[C@]1(c2cccc(NS(=O)(=O)C3CC3)c2)[C@@H]2CN(CCCN3CCCC(F)(F)C3)C[C@@H]21` [Example 16-(b), N-(3-{(1R,5S,6r)-3-[3-(3,3-difluoropiperidin-1-yl)propyl]-6-ethyl-3-azabicyclo[3.1.0]hexan-6-yl}phenyl)cyclopropanesulfonamide hydrochloride], in that order: 5.7 mg/kg, 0.246, 44.5 nM, 58 and 640 nM.
Regarding `CC[C@]1(c2cc(NS(=O)(=O)C3CC3)ccc2F)[C@@H]2CN(CCCN3CCC(F)(F)CC3)C[C@@H]21` [Example 15-(b), N-(3-{(1R,5S,6r)-3-[3-(4,4-difluoropiperidin-1-yl)propyl]-6-ethyl-3-azabicyclo[3.1.0]hexan-6-yl}-4-fluorophenyl)cyclopropanesulfonamide hydrochloride], the ED50 in data set [1] turned out to be 3.1 mg/kg. In the data set “in vitro”, the fraction unbound was 0.1. Besides, the “Plasma concentration of test substance” value in data set [2] is 71.5 nM. The same molecule displayed a Safety margin at hERG of 182. Moreover, at hERG current, half-maximal inhibition (IC50) required 1300 nM.
With `CC[C@]1(c2cc(F)cc(NS(=O)(=O)C3CC3)c2)[C@@H]2CN(CC3(O)Cc4ccccc4C3)C[C@@H]21` [Example 10-(b), N-(3-{(1R,5S,6r)-6-ethyl-3-[(2-hydroxy-2,3-dihydro-1H-inden-2-yl)methyl]-3-azabicyclo[3.1.0]hexan-6-yl}-5-fluorophenyl)cyclopropanesulfonamide hydrochloride], in data set [1], the ED50 stood at 1.8 mg/kg. In addition, in the data set “in vitro”, the fraction unbound was 0.102. Besides, in data set [2], the “Plasma concentration of test substance” value is 129 nM. This molecule also came in with a Safety margin on hERG of 5. For the same molecule, half-maximal inhibition against hERG current (IC50) required 62 nM.
For `CC[C@]1(c2cc(NS(=O)(=O)C3CC3)ccc2F)[C@@H]2CN(CCCC3CCC(F)(F)CC3)C[C@@H]21` [Example 5-(b), N-(3-{(1R,5S,6r)-3-[3-(4,4-difluorocyclohexyl)propyl]-6-ethyl-3-azabicyclo[3.1.0]hexan-6-yl}-4-fluorophenyl)cyclopropanesulfonamide hydrochloride], in that order: 1.7 mg/kg, 0.005, 116 nM, 153 and 89 nM.
